Experimental findings from patent US7592373B2 (Boehringer Ingelheim International GmbH, priority 2003, dated 2009) are described below.

Structures can show the parent of a compound that is named as a salt.

A word on the melting point: it is the temperature of the solid-liquid transition. For the compound `C[C@@H]1C[C@H](C)CN(Cc2ccc(/C=C/C(=O)Nc3ccc(-c4ccc(Cl)cc4)cc3)cc2)C1` [Example 5.3, (E)-N-(4′-chlorobiphenyl-4-yl)-3-[4-(cis-3,5-dimethylpiperidin-1-ylmethyl)phenyl]acrylamide], the melting point was in the range of 217 to 218 °C. `O=C(C#Cc1ccc(C(F)(F)F)cc1Cl)Nc1ccc2nc(N3CCCCC3)ccc2c1` [Example 7.1, 3-(2-chloro-4-trifluoromethylphenyl)propynoic acid-(2-piperidin-1-ylquinolin-6-yl)amide] gave a melting point of 176 to 179 °C. The figure for `CN(Cc1ccc(C#CC(=O)Nc2ccc(-c3ccc(Cl)cc3)cc2)cc1)C1CCCC1` [Example 1.425] is 217 to 219 °C; for `CC1CCN(Cc2ccc(NC(=O)C#Cc3ccc(-c4ccc(Cl)cc4)cc3)cc2)CC1` [Example 3.14, 3-(4′-chlorobiphenyl-4-yl)propynoic acid-[4-(4-methylpiperidin-1-ylmethyl)phenyl]amide] it is 263 to 268 °C; for `O=C(CCc1ccc(CN2CCC(CO)CC2)cc1)Nc1ccc(-c2ccc(Cl)cc2)cc1` [Example 6.6, N-(4′-chlorobiphenyl-4-yl)-3-[4-(4-hydroxymethylpiperidin-1-ylmethyl)phenyl]propionamide] it is 185 to 186 °C. Regarding `CN(Cc1ccc(/C=C/C(=O)Nc2ccc(-c3ccc(Cl)cc3)cc2)cc1)C1CCNCC1` (as salt: acetate) [Example 5.36, (E)-N-(4′-chlorobiphenyl-4-yl)-3-{4[(methylpiperidin-4-ylamino)methyl]phenyl}acrylamide×trifluoroacetic acid acetate], the melting point was in the range of 207 to 208 °C. For the compound `O=C(C#Cc1ccc(-c2ccc(Cl)cc2)cc1)Nc1ccc(CN2CCCCC2)c(Cl)c1` [Example 3.20, 3-(4′-chlorobiphenyl-4-yl)propynoic acid-(3-chloro-4-piperidin-1-ylmethylphenyl)amide], the melting point is 277 to 281 °C. `CC1(O)CCN(Cc2ccc(CCC(=O)Nc3ccc(-c4ccc(Cl)cc4)cc3)cc2)CC1` [Example 6.9, N-(4′-chlorobiphenyl-4-yl)-3-[4-(4-hydroxy-4-methylpiperidin-1-ylmethyl)phenyl]propionamide] had a melting point of 192 °C. For `CC1CCN(Cc2ccc(CCC(=O)Nc3ccc(-c4ccc(Cl)cc4)cc3)cc2)CC1` [Example 6.2, N-(4′-chlorobiphenyl-4-yl)-3-[4-(4-methylpiperidin-1-ylmethyl)phenyl]propionamide] the value was 150 to 151 °C; for `CC1(O)CCN(Cc2ccc(C#CC(=O)Nc3ccc(-c4ccc(Cl)cc4)cc3)cc2)CC1` [Example 1.37, 3-[4-(4-hydroxy-4-methylpiperidin-1-ylmethyl)phenyl]propynoic acid-(4′-chlorobiphenyl-4-yl)amide], 192 to 193 °C; for `CC(C)N(Cc1ccc(CCC(=O)Nc2ccc(-c3ccc(Cl)cc3)cc2)cc1)C1CCCCC1` [Example 6.40, N-(4′-chlorobiphenyl-4-yl)-3-{4-[(cyclohexylisopropylamino)methyl]phenyl}propionamide], 165 °C. For `CCN(CC)CCOc1ccc(NC(=O)C#Cc2ccc(Cl)cc2Cl)cc1Cl` [Example 4.1, 3-(2,4-dichlorophenyl)propynoic acid-[3-chloro-4-(2-diethylaminoethoxy)phenyl]amide], the melting point was 98 to 100 °C. The figure for `COC1CCN(Cc2ccc(CCC(=O)Nc3ccc(-c4ccc(Cl)cc4)cc3)cc2)CC1` [Example 6.3, N-(4′-chlorobiphenyl-4-yl)-3-[4-(4-methoxypiperidin-1-ylmethyl)phenyl]propionamide] is 143 to 144 °C; for `COc1cc(NC(=O)C#Cc2ccc(C(F)(F)F)cc2Cl)ccc1OCCN1C(C)CCCC1C` (centres unmarked) [Example 4.277, 3-(2-chloro-4-trifluoromethylphenyl)propynoic acid-{4-[2-(2,6-dimethylpiperidin-1-yl)ethoxy]-3-methoxyphenyl}amide] it is 225 to 227 °C.
